# According to ChEMBL document CHEMBL1201862, “PubChem BioAssay data set” (2004):
#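 The compound was tested at five concentrations on cells cultured in 96-well plates, with a 48-hour exposure period. The concentration for 50% growth inhibition is given as GI50.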 The source made the active and inactive calls. No stated cut-off is given here; in the data, active = GI50 up to about 1.1 µM and inactive = higher.
# Tests used:
# Experiment in all cases: NCI anticancer screen, dose series, 48 h
# [1] = system: HT-29
# [2] = system: SNB-75
# [3] = system: OVCAR-4
# [4] = system: MOLT-4
# [5] = system: SK-MEL-5
# [6] = system: OVCAR-8
# [7] = system: LOX IMVI
# [8] = system: SK-MEL-2
# [9] = system: T47D
# [10] = system: SR
# [11] = system: HCT-15
# [12] = system: MDA-MB-435
# [13] = system: UO-31
# [14] = system: SF-295
# [15] = system: TK-10
# [16] = system: HL-60
# [17] = system: RPMI-8226
# [18] = system: A549
# [19] = system: MDA-N
# [20] = system: MCF7
Compound,GI50 [1],GI50 [2],GI50 [3],GI50 [4],GI50 [5],GI50 [6],GI50 [7],GI50 [8],GI50 [9],GI50 [10],GI50 [11] [µM],GI50 [12],GI50 [13],GI50 [14],GI50 [15],GI50 [16],GI50 [17],GI50 [18],GI50 [19],GI50 [20]
CC1OC(OC2C(CO)OC(O[C@H]3CC[C@@]4(C)C(=CC[C@H]5[C@@H]6C[C@@H]7O[C@](O)(CC[C@@H](C)COC8OC(CO)C(O)C(O)C8O)[C@@H](C)[C@@H]7[C@@]6(C)CC[C@@H]54)C3)C(OC3OC(C)C(O)C(O)C3O)C2O)C(O)C(O)C1O (stereo partly drawn),1.98 µM (inactive),1.48 µM (inactive),6.73 µM (inactive),1.58 µM (inactive),4.21 µM (inactive),2.19 µM (inactive),1.56 µM (inactive),4.98 µM (inactive),4.05 µM (inactive),3.23 µM (inactive),1.89,3.06 µM (inactive),2.82 µM (inactive),3.91 µM (inactive),8.45 µM (inactive),2.13 µM (inactive),2.34 µM (inactive),1.57 µM (inactive),2.89 µM (inactive),
O=C(c1ccc(Cl)cc1)N(C(=O)N1CCCCC1)c1ccccc1,> 100 µM (inactive),,,18.9 µM (inactive),34.2 µM (inactive),> 100 µM (inactive),68.1 µM (inactive),25.2 µM (inactive),17.6 µM (inactive),,79.4,> 100 µM (inactive),34.7 µM (inactive),,,20.1 µM (inactive),22.6 µM (inactive),,> 100 µM (inactive),65.5 µM (inactive)
CN(C)CCNc1c([N+](=O)[O-])sc2ccc(Cl)cc12,5.89 µM (inactive),14.5 µM (inactive),12.6 µM (inactive),2.37 µM (inactive),26.2 µM (inactive),17.3 µM (inactive),3.49 µM (inactive),33.5 µM (inactive),23.6 µM (inactive),> 100 µM (inactive),7.76,88.5 µM (inactive),20 µM (inactive),17.6 µM (inactive),91 µM (inactive),> 100 µM (inactive),> 100 µM (inactive),11.9 µM (inactive),,7.36 µM (inactive)
COc1ccc(NC(=S)NN=C(C)c2cccc(C(C)=NNC(=S)Nc3ccc(OC)cc3)n2)cc1,28.2 µM (inactive),3.9 µM (inactive),7.13 µM (inactive),8.55 µM (inactive),0.995 µM (active),9.51 µM (inactive),13.6 µM (inactive),> 100 µM (inactive),> 100 µM (inactive),3.13 µM (inactive),10.9,85.5 µM (inactive),6.65 µM (inactive),11.2 µM (inactive),58.2 µM (inactive),20.5 µM (inactive),> 100 µM (inactive),23.7 µM (inactive),,
COc1ccc(Cn2c3c(cc(OS(=O)(=O)C(F)(F)F)c2=O)Cc2ccccc2-3)cc1,> 50 µM (inactive),> 50 µM (inactive),19.3 µM (inactive),12 µM (inactive),10.4 µM (inactive),13.3 µM (inactive),10 µM (inactive),45.6 µM (inactive),32.3 µM (inactive),4.36 µM (inactive),3.22,19.3 µM (inactive),7.33 µM (inactive),18.9 µM (inactive),22.3 µM (inactive),10.7 µM (inactive),32.8 µM (inactive),16.5 µM (inactive),12.9 µM (inactive),
COc1ccc2c(c1)/C(=C\c1c(-c3ccccc3)nc3n1CCS3)C(=O)N2,3.71 µM (inactive),12.8 µM (inactive),,2.78 µM (inactive),5.08 µM (inactive),14.6 µM (inactive),7.64 µM (inactive),5.25 µM (inactive),7.5 µM (inactive),,4.38,1.53 µM (inactive),9.82 µM (inactive),3.79 µM (inactive),10.7 µM (inactive),3.04 µM (inactive),5.26 µM (inactive),5.57 µM (inactive),1.87 µM (inactive),4.62 µM (inactive)
S=C(c1c[nH]c2ccccc12)N1CCOCC1,> 100 µM (inactive),0.52 µM (active),,> 100 µM (inactive),> 100 µM (inactive),> 100 µM (inactive),> 100 µM (inactive),> 100 µM (inactive),,> 100 µM (inactive),> 100,> 100 µM (inactive),45.8 µM (inactive),> 100 µM (inactive),> 100 µM (inactive),> 100 µM (inactive),> 100 µM (inactive),,> 100 µM (inactive),> 100 µM (inactive)
O=c1[nH]ncc2[nH]c3c(c12)CCCc1ccccc1-3,31.1 µM (inactive),,44.5 µM (inactive),17.5 µM (inactive),22.4 µM (inactive),53.6 µM (inactive),44.3 µM (inactive),34.9 µM (inactive),46.9 µM (inactive),,28.5,25.7 µM (inactive),43.4 µM (inactive),32.5 µM (inactive),50.1 µM (inactive),21.8 µM (inactive),27.8 µM (inactive),33.3 µM (inactive),29.6 µM (inactive),29.4 µM (inactive)
OC(CN(CCCl)CCCl)C(O)C(O)C(O)CN(CCCl)CCCl (stereo not drawn),> 100 µM (inactive),,,,> 100 µM (inactive),> 100 µM (inactive),27.4 µM (inactive),> 100 µM (inactive),30.5 µM (inactive),0.624 µM (active),> 100,> 100 µM (inactive),22.1 µM (inactive),,> 100 µM (inactive),5.04 µM (inactive),> 100 µM (inactive),> 100 µM (inactive),,29 µM (inactive)
CC(=O)CC(C)(C)NC(=O)[C@@]1(O)CC[C@H]2[C@@H]3CCC4=CC(=O)CC[C@@H]4[C@H]3CC[C@@]21C,> 100 µM (inactive),> 100 µM (inactive),> 100 µM (inactive),56.4 µM (inactive),72.8 µM (inactive),> 100 µM (inactive),> 100 µM (inactive),> 100 µM (inactive),63.1 µM (inactive),> 100 µM (inactive),> 100,> 100 µM (inactive),> 100 µM (inactive),> 100 µM (inactive),> 100 µM (inactive),70.3 µM (inactive),> 100 µM (inactive),> 100 µM (inactive),> 100 µM (inactive),
C[C@]12CC[C@@H]3c4cc(Br)c(O)c(Br)c4CC[C@H]3[C@@H]1CC(Br)C2=O (stereo partly drawn),3.26 µM (inactive),12.1 µM (inactive),5.97 µM (inactive),2.53 µM (inactive),,2.54 µM (inactive),3.57 µM (inactive),12.2 µM (inactive),4.65 µM (inactive),,2.65,4.13 µM (inactive),1.23 µM (inactive),16.6 µM (inactive),14.2 µM (inactive),2.59 µM (inactive),,17.4 µM (inactive),5.79 µM (inactive),5.61 µM (inactive)
CCOP(=O)(OCC)C(Nc1ccc(Cl)cc1)c1ccc(F)cc1 (stereo not drawn),22 µM (inactive),20.5 µM (inactive),36.2 µM (inactive),23.1 µM (inactive),17.3 µM (inactive),28.8 µM (inactive),15.7 µM (inactive),14.6 µM (inactive),16.6 µM (inactive),40.8 µM (inactive),26.7,15.7 µM (inactive),20.7 µM (inactive),19.8 µM (inactive),42.7 µM (inactive),18.6 µM (inactive),22.5 µM (inactive),31 µM (inactive),19.9 µM (inactive),
COc1ccc(NC(=O)CC(=O)N2N=C(N(c3ccccc3)c3ccccc3)CC2c2ccccc2)cc1 (stereo not drawn),> 100 µM (inactive),> 100 µM (inactive),> 100 µM (inactive),> 100 µM (inactive),,> 100 µM (inactive),> 100 µM (inactive),> 100 µM (inactive),> 100 µM (inactive),,> 100,> 100 µM (inactive),> 100 µM (inactive),> 100 µM (inactive),> 100 µM (inactive),> 100 µM (inactive),> 100 µM (inactive),> 100 µM (inactive),,> 100 µM (inactive)
CNC(=O)CCCNC(=O)CCCC(=O)OC,> 100 µM (inactive),> 100 µM (inactive),,> 100 µM (inactive),> 100 µM (inactive),> 100 µM (inactive),> 100 µM (inactive),> 100 µM (inactive),> 100 µM (inactive),,> 100,> 100 µM (inactive),> 100 µM (inactive),> 100 µM (inactive),> 100 µM (inactive),> 100 µM (inactive),> 100 µM (inactive),> 100 µM (inactive),> 100 µM (inactive),> 100 µM (inactive)
Cc1ccc2c(=O)cc(Cc3cccs3)[nH]c2n1,> 100 µM (inactive),95.5 µM (inactive),> 100 µM (inactive),> 100 µM (inactive),> 100 µM (inactive),> 100 µM (inactive),> 100 µM (inactive),> 100 µM (inactive),> 100 µM (inactive),,> 100,> 100 µM (inactive),> 100 µM (inactive),> 100 µM (inactive),> 100 µM (inactive),> 100 µM (inactive),> 100 µM (inactive),> 100 µM (inactive),,> 100 µM (inactive)
CNC(=S)c1nnsc1N,,> 100 µM (inactive),> 100 µM (inactive),> 100 µM (inactive),14 µM (inactive),> 100 µM (inactive),> 100 µM (inactive),> 100 µM (inactive),2.03 µM (inactive),,> 100,> 100 µM (inactive),> 100 µM (inactive),> 100 µM (inactive),> 100 µM (inactive),0.0115 µM (active),0.9 µM (active),> 100 µM (inactive),> 100 µM (inactive),0.918 µM (active)
